Experimental data taken from patent US20210079384A1, “NON-INVASIVE DETECTION OF RESPONSE TO A TARGETED THERAPY” (The Johns Hopkins University, priority 2018, published 2021).

Assays:
[1] = system: advanced non-small cell lung cancer (NSCLC) patients; test: Progression-free survival by RECIST 1.1 CT assessment in NSCLC patients on TKI therapy; assay type: in vivo, human; details: single patient CGPLLU2 with metastatic disease; osimertinib 80 mg PO daily; subsequently developed resistance in the primary lung lesion
Text: (§1) Serial blood was drawn from fifteen advanced non-small cell lung cancer (NSCLC) patients undergoing treatment with targeted tyrosine kinase inhibitors (TKIs), afatinib or osimertinib, to directly detect somatic sequence and structural alterations in cfDNA, to monitor ctDNA dynamics during therapy, to determine cell-free tumor burden, and to predict clinical outcome (FIG. 1). Liquid biopsies were obtained from 11 radiographic responders and four radiographic non-responders immediately prior to treatment (baseline), 6-22 days post treatment, and at serial time points until disease progression. The ultrasensitive targeted error correction sequencing (TEC-Seq) approach (6) was used as well as whole genome sequencing to identify tumor-derived sequence alterations and chromosomal copy number changes in cell-free DNA (cfDNA). […] Next, changes in cfTL were evaluated within hours to days after treatment compared to baseline and assessed whether cfTL could serve as a marker of patient outcome.
For each patient, ˜5 ml of plasma were collected immediately prior to therapy (baseline), at 6-22 days after therapy initiation (median 16 days), and at additional serial time points until disease progression was confirmed by radiographic assessment (Tables S1 and S2). Target lesions were evaluated before therapy with CT/MRI imaging and approximately every six weeks until disease progression. […]

[2] = system: advanced non-small cell lung cancer (NSCLC) patients; test: Cell-free tumor load (cfTL) in plasma cfDNA by TEC-Seq during TKI therapy; assay type: in vivo, human; details: single patient CGPLLU2 with metastatic disease; osimertinib 80 mg PO daily
Text: as §1, with “progression.” for “progression. The ultrasensitive targeted error correction sequencing (TEC-Seq) approach (6) was used as well as whole genome sequencing to identify tumor-derived sequence alterations and chromosomal copy number changes in cell-free DNA (cfDNA).”, “outcome. […]” for “outcome.”
For all patients, serial blood draws were collected over the course of treatment with targeted inhibition for isolation of plasma and extraction of cell-free DNA (cfDNA) for genomic analyses. Time points were analyzed immediately prior to treatment for baseline assessment as well as 6-22 days post treatment and at serial time points until disease progression (Table S2).
Sequence and copy number alterations were detected in cfDNA for each patient at each time point analyzed and used a tiered approach to evaluate tumor burden. […]

C=CC(=O)Nc1cc(Nc2nccc(-c3cn(C)c4ccccc34)n2)c(OC)cc1N(C)CCN(C)C [osimertinib]
progression-free survival [1]: 7.0 months | change of cfTL from baseline to day 10 [2]: rapid decline
